Source: PubChem BioAssay (NCI)
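Cultured in 96-well plates, cells were exposed to test compound for 48 hours across five concentrations. TGI marks complete inhibition of growth.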

Key:
Assay in all cases: DTP human tumour cell line panel, 48 h
786-0 renal = system: 786-0 renal
A498 renal = system: A498 renal
A549 NSCLC = system: A549 NSCLC
ACHN renal = system: ACHN renal
BT-549 breast = system: BT-549 breast
CAKI-1 renal = system: CAKI-1 renal
CCRF-CEM leukemia = system: CCRF-CEM leukemia
COLO 205 colon = system: COLO 205 colon
DU-145 prostate = system: DU-145 prostate
EKVX NSCLC = system: EKVX NSCLC
HCC-2998 colon = system: HCC-2998 colon
HCT-116 colon = system: HCT-116 colon
HCT-15 colon = system: HCT-15 colon
HL-60(TB) leukemia = system: HL-60(TB) leukemia
HOP-62 NSCLC = system: HOP-62 NSCLC
HOP-92 NSCLC = system: HOP-92 NSCLC
HS 578T breast = system: HS 578T breast
HT29 colon = system: HT29 colon
IGROV1 ovarian = system: IGROV1 ovarian
K-562 leukemia = system: K-562 leukemia
KM12 colon = system: KM12 colon
LOX IMVI melanoma = system: LOX IMVI melanoma
M14 melanoma = system: M14 melanoma
MALME-3M melanoma = system: MALME-3M melanoma
MCF7 breast = system: MCF7 breast
MDA-MB-231 breast = system: MDA-MB-231 breast
MDA-MB-435 = system: MDA-MB-435
MDA-N = system: MDA-N
MOLT-4 leukemia = system: MOLT-4 leukemia
NCI-H226 lung = system: NCI-H226 lung
NCI-H23 lung = system: NCI-H23 lung
NCI-H460 lung = system: NCI-H460 lung
NCI-H522 lung = system: NCI-H522 lung
NCI/ADR-RES ovarian = system: NCI/ADR-RES ovarian
OVCAR-3 ovarian = system: OVCAR-3 ovarian
OVCAR-4 ovarian = system: OVCAR-4 ovarian
OVCAR-5 ovarian = system: OVCAR-5 ovarian
OVCAR-8 ovarian = system: OVCAR-8 ovarian
PC-3 prostate = system: PC-3 prostate
RPMI-8226 leukemia = system: RPMI-8226 leukemia
RXF 393 renal = system: RXF 393 renal
SF-268 CNS = system: SF-268 CNS
SF-295 CNS = system: SF-295 CNS
SF-539 CNS = system: SF-539 CNS
SK-MEL-2 melanoma = system: SK-MEL-2 melanoma
SK-MEL-28 melanoma = system: SK-MEL-28 melanoma
SK-MEL-5 melanoma = system: SK-MEL-5 melanoma
SK-OV-3 ovarian = system: SK-OV-3 ovarian
SN12C renal = system: SN12C renal
SNB-19 CNS = system: SNB-19 CNS
SNB-75 CNS = system: SNB-75 CNS
SR leukemia = system: SR leukemia
SW-620 colon = system: SW-620 colon
T-47D breast = system: T-47D breast
TK-10 renal = system: TK-10 renal
U251 CNS = system: U251 CNS
UACC-257 melanoma = system: UACC-257 melanoma
UACC-62 melanoma = system: UACC-62 melanoma
UO-31 renal = system: UO-31 renal

## CC(=O)OCc1ccc2oc(=O)c(C(=O)Oc3ccccc3)cc2c1
786-0 renal
  TGI: 45.8 µM
A498 renal
  TGI: > 100 µM
A549 NSCLC
  TGI: > 100 µM
ACHN renal
  TGI: > 100 µM
BT-549 breast
  TGI: > 100 µM
CAKI-1 renal
  TGI: 38.5 µM
CCRF-CEM leukemia
  TGI: > 100 µM
COLO 205 colon
  TGI: > 100 µM
DU-145 prostate
  TGI: > 100 µM
EKVX NSCLC
  TGI: > 100 µM
HCC-2998 colon
  TGI: > 100 µM
HCT-116 colon
  TGI: 30.6 µM
HCT-15 colon
  TGI: 50 µM
HL-60(TB) leukemia
  TGI: > 100 µM
HOP-62 NSCLC
  TGI: > 100 µM
HOP-92 NSCLC
  TGI: 40.2 µM
HS 578T breast
  TGI: > 100 µM
HT29 colon
  TGI: > 100 µM
IGROV1 ovarian
  TGI: > 100 µM
K-562 leukemia
  TGI: 30 µM
KM12 colon
  TGI: > 100 µM
LOX IMVI melanoma
  TGI: > 100 µM
M14 melanoma
  TGI: > 100 µM
MALME-3M melanoma
  TGI: > 100 µM
MCF7 breast
  TGI: > 100 µM
MDA-MB-231 breast
  TGI: 84.2 µM
MDA-MB-435
  TGI: > 100 µM
MDA-N
  TGI: > 100 µM
MOLT-4 leukemia
  TGI: > 100 µM
NCI-H226 lung
  TGI: > 100 µM
NCI-H23 lung
  TGI: > 100 µM
NCI-H460 lung
  TGI: > 100 µM
NCI-H522 lung
  TGI: > 100 µM
NCI/ADR-RES ovarian
  TGI: > 100 µM
OVCAR-3 ovarian
  TGI: > 100 µM
OVCAR-4 ovarian
  TGI: > 100 µM
OVCAR-5 ovarian
  TGI: > 100 µM
OVCAR-8 ovarian
  TGI: > 100 µM
PC-3 prostate
  TGI: 34.5 µM
RPMI-8226 leukemia
  TGI: > 100 µM
RXF 393 renal
  TGI: > 100 µM
SF-268 CNS
  TGI: > 100 µM
SF-295 CNS
  TGI: > 100 µM
SF-539 CNS
  TGI: > 100 µM
SK-MEL-2 melanoma
  TGI: > 100 µM
SK-MEL-28 melanoma
  TGI: > 100 µM
SK-MEL-5 melanoma
  TGI: > 100 µM
SK-OV-3 ovarian
  TGI: > 100 µM
SN12C renal
  TGI: 99.2 µM
SNB-19 CNS
  TGI: > 100 µM
SNB-75 CNS
  TGI: > 100 µM
SR leukemia
  TGI: > 100 µM
SW-620 colon
  TGI: > 100 µM
T-47D breast
  TGI: 37.3 µM
TK-10 renal
  TGI: 62.8 µM
U251 CNS
  TGI: > 100 µM
UACC-257 melanoma
  TGI: > 100 µM
UACC-62 melanoma
  TGI: 38.6 µM
UO-31 renal
  TGI: > 100 µM

## CCOC(=O)C(SCCO)C(C(=O)OCC)n1ccc(=O)[nH]c1=O (stereo not drawn)
786-0 renal
  TGI: > 50.6 µM
A498 renal
  TGI: > 100 µM
A549 NSCLC
  TGI: > 100 µM
ACHN renal
  TGI: > 66.6 µM
BT-549 breast
  TGI: > 100 µM
CAKI-1 renal
  TGI: 39.5 µM
CCRF-CEM leukemia
  TGI: 10.5 µM
COLO 205 colon
  TGI: > 59.3 µM
DU-145 prostate
  TGI: > 100 µM
EKVX NSCLC
  TGI: > 100 µM
HCC-2998 colon
  TGI: > 100 µM
HCT-116 colon
  TGI: > 57.4 µM
HCT-15 colon
  TGI: > 57.5 µM
HL-60(TB) leukemia
  TGI: 12 µM
HOP-62 NSCLC
  TGI: > 96.6 µM
HOP-92 NSCLC
  TGI: 69.1 µM
HS 578T breast
  TGI: > 100 µM
HT29 colon
  TGI: 83.3 µM
IGROV1 ovarian
  TGI: > 95 µM
K-562 leukemia
  TGI: 36.1 µM
KM12 colon
  TGI: > 87.4 µM
LOX IMVI melanoma
  TGI: > 43.8 µM
M14 melanoma
  TGI: > 90.5 µM
MALME-3M melanoma
  TGI: 32.9 µM
MCF7 breast
  TGI: > 62.1 µM
MDA-MB-231 breast
  TGI: > 82.2 µM
MDA-MB-435
  TGI: > 58.5 µM
MDA-N
  TGI: 97.8 µM
MOLT-4 leukemia
  TGI: 21.7 µM
NCI-H226 lung
  TGI: > 61.2 µM
NCI-H23 lung
  TGI: > 100 µM
NCI-H460 lung
  TGI: > 100 µM
NCI-H522 lung
  TGI: 22.7 µM
NCI/ADR-RES ovarian
  TGI: > 69.4 µM
OVCAR-3 ovarian
  TGI: 72.7 µM
OVCAR-4 ovarian
  TGI: > 86.5 µM
OVCAR-5 ovarian
  TGI: 47.6 µM
OVCAR-8 ovarian
  TGI: > 57.4 µM
PC-3 prostate
  TGI: > 100 µM
RPMI-8226 leukemia
  TGI: 47.8 µM
RXF 393 renal
  TGI: 81.4 µM
SF-268 CNS
  TGI: > 100 µM
SF-295 CNS
  TGI: > 100 µM
SF-539 CNS
  TGI: > 71.6 µM
SK-MEL-2 melanoma
  TGI: > 79.8 µM
SK-MEL-28 melanoma
  TGI: > 86.7 µM
SK-MEL-5 melanoma
  TGI: > 100 µM
SK-OV-3 ovarian
  TGI: > 100 µM
SN12C renal
  TGI: > 100 µM
SNB-19 CNS
  TGI: > 100 µM
SNB-75 CNS
  TGI: > 95.9 µM
SR leukemia
  TGI: 34 µM
SW-620 colon
  TGI: 46.8 µM
T-47D breast
  TGI: > 100 µM
TK-10 renal
  TGI: > 100 µM
U251 CNS
  TGI: 82.9 µM
UACC-257 melanoma
  TGI: > 100 µM
UACC-62 melanoma
  TGI: 67.3 µM
UO-31 renal
  TGI: > 100 µM
